From paper PMC13375149 (Journal of Raman spectroscopy : JRS, 2025)

Tests used:
[1] = SERS detection and time profile of PAHs/PAC in murine tissue extracts; format: in vivo, mice (C57BL6J)
[2] = GC-MS/MS quantification of B[a]P, PYR and TQE in tissues; format: in vivo, mice (C57BL6J)
[3] = 24, 48, 72 h post-injection, t(1) < 12.71, p > 0.05 as printed

Row | Compound | Detection in liver and kidney tissues using SERS and SEIRA ([1]; mice exposed to individual PAHs or PACs, Figs. S3 and S4) | Statistical significance of GC-MS/MS tissue concentrations [2, 3] | Detection in liver and kidney tissues using SERS and SEIRA ([1]; mouse, in vivo) | Tissue accumulation relative to the other analyzed compounds ([2]; IP mixture, brain, kidney, liver, lung, 24-72 h post-exposure) | Statistical significance of GC-MS/MS tissue concentrations ([2]; female, C57BL6J, mouse, in vivo)
1 | c1cc2ccc3cccc4ccc(c1)c2c34 [PYR, pyrene] | successful detection | statistically significant across all tissues and time points |  |  | 
2 | O=C1c2ccccc2C(=O)c2cc3ccccc3cc21 [TQE, 5,12-Naphthacenequinone] |  | statistically significant across all tissues and time points | successful detection | lowest accumulation | 
3 | c1ccc2c(c1)cc1ccc3cccc4ccc2c1c34 [B[a]P, benzo(a)pyrene] |  |  | successful detection |  | statistically significant except in lung at 72 hours post-injection
